Assay results taken from patent US20230148214A1, “INDAZOLES AND AZAINDAZOLES AS LRRK2 INHIBITORS” (ESCAPE Bio, Inc., priority 2020, published 2023).

Assays:
[1] = molecular target: T1, LRRK2 G2019S (Homo sapiens, UniProt Q5S007, G2019S); assay: LRRK2 Kinase Activity Assay (LanthaScreen TR-FRET), G2019S; format: biochemical; conditions: recombinant G2019S-LRRK2, 25 μM ATP, 400 nM LRRKtide, 60 min; class symbols
T1 construct: purchased Life Technologies PV4881
Procedure, shortened: (§1)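 IC50 fitted to the compound-dependent loss of TR-FRET signal. Each kinase form, wild type or G2019S, phosphorylated the fluorescein-tagged ERM-derived LRRKtide in the presence of ATP and compound dilutions over 60 min at room temperature; quench contained 10 mM EDTA and 2 nM anti-pERM antibody (final).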

[2] = molecular target: T2, LRRK2 WT (Homo sapiens, UniProt Q5S007); assay: LRRK2 Kinase Activity Assay (LanthaScreen TR-FRET), wild type; format: biochemical; conditions: recombinant wild type LRRK2, 25 μM ATP, 400 nM LRRKtide, 60 min; class symbols
T2 construct: purchased Life Technologies PR8604B
T2 sequence (Q5S007 whole entry): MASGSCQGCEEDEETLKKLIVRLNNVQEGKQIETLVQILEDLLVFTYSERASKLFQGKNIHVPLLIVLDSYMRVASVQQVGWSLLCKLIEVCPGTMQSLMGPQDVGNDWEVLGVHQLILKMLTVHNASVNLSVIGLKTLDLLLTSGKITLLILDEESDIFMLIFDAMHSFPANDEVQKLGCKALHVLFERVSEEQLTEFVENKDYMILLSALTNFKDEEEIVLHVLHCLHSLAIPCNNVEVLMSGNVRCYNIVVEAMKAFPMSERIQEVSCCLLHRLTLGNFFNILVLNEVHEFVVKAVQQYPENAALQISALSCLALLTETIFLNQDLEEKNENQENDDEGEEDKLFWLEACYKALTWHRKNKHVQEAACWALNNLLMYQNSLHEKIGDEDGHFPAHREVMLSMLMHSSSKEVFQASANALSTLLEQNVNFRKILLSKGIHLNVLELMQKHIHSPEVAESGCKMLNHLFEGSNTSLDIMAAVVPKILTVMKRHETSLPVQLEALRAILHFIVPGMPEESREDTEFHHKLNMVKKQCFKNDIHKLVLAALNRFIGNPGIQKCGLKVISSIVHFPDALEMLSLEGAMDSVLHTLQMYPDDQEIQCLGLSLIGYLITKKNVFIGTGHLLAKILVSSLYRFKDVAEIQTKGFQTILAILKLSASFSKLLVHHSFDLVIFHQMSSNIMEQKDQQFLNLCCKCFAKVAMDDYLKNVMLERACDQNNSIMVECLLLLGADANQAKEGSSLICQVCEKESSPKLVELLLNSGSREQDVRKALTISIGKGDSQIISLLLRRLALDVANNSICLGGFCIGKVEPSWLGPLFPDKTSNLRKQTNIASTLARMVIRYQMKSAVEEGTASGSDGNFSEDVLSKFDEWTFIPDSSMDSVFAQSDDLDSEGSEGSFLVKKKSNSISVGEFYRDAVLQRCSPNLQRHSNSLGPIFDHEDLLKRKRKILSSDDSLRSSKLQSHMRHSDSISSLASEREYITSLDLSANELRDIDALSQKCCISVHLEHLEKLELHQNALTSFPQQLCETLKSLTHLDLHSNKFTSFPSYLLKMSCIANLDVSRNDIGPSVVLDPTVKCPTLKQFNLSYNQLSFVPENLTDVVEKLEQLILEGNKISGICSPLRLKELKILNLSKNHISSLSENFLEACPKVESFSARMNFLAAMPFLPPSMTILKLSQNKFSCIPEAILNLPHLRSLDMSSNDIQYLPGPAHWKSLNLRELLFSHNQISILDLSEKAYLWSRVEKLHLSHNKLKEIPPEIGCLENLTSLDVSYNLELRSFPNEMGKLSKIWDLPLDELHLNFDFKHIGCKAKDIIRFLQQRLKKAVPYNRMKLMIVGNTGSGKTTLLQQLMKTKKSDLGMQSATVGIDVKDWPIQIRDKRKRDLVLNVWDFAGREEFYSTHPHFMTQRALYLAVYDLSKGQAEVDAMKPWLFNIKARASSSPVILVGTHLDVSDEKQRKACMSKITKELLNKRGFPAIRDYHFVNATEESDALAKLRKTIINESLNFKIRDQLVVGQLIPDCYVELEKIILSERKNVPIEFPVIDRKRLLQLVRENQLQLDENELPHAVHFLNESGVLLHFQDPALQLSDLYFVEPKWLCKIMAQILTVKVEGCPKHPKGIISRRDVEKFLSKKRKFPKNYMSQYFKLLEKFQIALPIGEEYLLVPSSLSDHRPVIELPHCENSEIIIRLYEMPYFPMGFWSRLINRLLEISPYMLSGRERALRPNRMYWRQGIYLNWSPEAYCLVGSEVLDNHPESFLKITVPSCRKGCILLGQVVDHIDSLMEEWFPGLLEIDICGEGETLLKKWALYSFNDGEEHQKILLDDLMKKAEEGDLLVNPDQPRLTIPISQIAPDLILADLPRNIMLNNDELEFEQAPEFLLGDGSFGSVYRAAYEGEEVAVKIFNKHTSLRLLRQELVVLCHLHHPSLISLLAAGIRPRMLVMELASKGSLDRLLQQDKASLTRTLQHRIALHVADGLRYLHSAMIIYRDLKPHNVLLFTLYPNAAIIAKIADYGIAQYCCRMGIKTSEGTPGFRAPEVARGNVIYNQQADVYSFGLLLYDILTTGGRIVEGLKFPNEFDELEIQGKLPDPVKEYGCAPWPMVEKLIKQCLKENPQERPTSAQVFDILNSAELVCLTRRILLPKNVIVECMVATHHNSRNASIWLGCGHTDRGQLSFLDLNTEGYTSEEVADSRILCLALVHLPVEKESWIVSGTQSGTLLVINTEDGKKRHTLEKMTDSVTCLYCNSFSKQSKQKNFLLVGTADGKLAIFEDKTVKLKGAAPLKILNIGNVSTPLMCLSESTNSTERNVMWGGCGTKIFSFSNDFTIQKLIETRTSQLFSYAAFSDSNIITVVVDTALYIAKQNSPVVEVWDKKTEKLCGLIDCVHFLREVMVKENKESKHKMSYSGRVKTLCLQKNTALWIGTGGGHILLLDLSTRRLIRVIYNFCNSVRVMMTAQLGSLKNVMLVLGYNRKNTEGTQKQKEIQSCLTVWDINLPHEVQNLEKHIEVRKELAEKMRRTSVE
Procedure, shortened: as §1

T1 sequence (Q5S007 whole entry G2019S): as the sequence (Q5S007 whole entry) above, with G2019S counted along it

Row | Structure (SMILES) | IC50 [1] [nM] | IC50 [2] [nM]
1 | N#Cc1cc2c(cc1F)[C@@H](Nc1ccc3[nH]nc(-c4cnco4)c3c1)CC2 (single isomer, unassigned) [Example 25, enantiomer 1, 6-Fluoro-1-((3-(oxazol-5-yl)-1H-indazol-5-yl)amino)-2,3-dihydro-1H-indene-5-carbonitrile] | < 100 | < 100
2 | N#Cc1ccc2c(c1F)CC[C@@H]2Nc1ccc2[nH]nc(-c3cnco3)c2c1 (single isomer, unassigned) [Example 26, enantiomer 1, 4-Fluoro-1-((3-(oxazol-5-yl)-1H-indazol-5-yl)amino)-2,3-dihydro-1H-indene-5-carbonitrile] | < 100 | < 100
3 | Cc1c(C#N)ccc2c1CC[C@@H]2Nc1ccc2[nH]nc(-c3cnco3)c2c1 (single isomer, unassigned) [Example 27, enantiomer 1, 4-methyl-1-((3-(oxazol-5-yl)-1H-indazol-5-yl)amino)-2,3-dihydro-1H-indene-5-carbonitrile] | < 100 | < 100
4 | Cc1cc2c(cc1C#N)CC[C@@H]2Nc1ccc2[nH]nc(-c3cnco3)c2c1 (single isomer, unassigned) [Example 28, enantiomer 1, 6-Methyl-1-((3-(oxazol-5-yl)-1H-indazol-5-yl)amino)-2,3-dihydro-1H-indene-5-carbonitrile] | < 100 | 100 to 1000
5 | Cc1cc2c(cc1C#N)CC[C@H]2Oc1ccc2[nH]nc(-c3cnco3)c2c1 (single isomer, unassigned) [Example 29, enantiomer 1, 6-Methyl-1-((3-(oxazol-5-yl)-1H-indazol-5-yl)oxy)-2,3-dihydro-1H-indene-5-carbonitrile] | < 100 | < 100
6 | N#Cc1ccc2c(c1)CC[C@H]2Nc1ccc2[nH]nc(-c3cnco3)c2n1 (single isomer, unassigned) [Example 30, enantiomer 1, 1-((3-(Oxazol-5-yl)-1H-pyrazolo[4,3-b]pyridin-5-yl)amino)-2,3-dihydro-1H-indene-5-carbonitrile] | < 100 | < 100
7 | N#Cc1ccc2c(c1)CC[C@H]2Nc1ccc2[nH]nc(-c3cnco3)c2n1 (single isomer, unassigned) [Example 30, enantiomer 2, 1-((3-(Oxazol-5-yl)-1H-pyrazolo[4,3-b]pyridin-5-yl)amino)-2,3-dihydro-1H-indene-5-carbonitrile] | < 100 | 100 to 1000
8 | N#Cc1ccc2c(c1)CC[C@H]2Oc1ccc2[nH]nc(-c3cnco3)c2n1 (single isomer, unassigned) [Example 31, enantiomer 1, 1-((3-(Oxazol-5-yl)-1H-pyrazolo[4,3-b]pyridin-5-yl)oxy)-2,3-dihydro-1H-indene-5-carbonitrile] | < 100 | < 100
9 | N#Cc1ccc2c(c1)CC[C@H]2Oc1ccc2[nH]nc(-c3cnco3)c2n1 (single isomer, unassigned) [Example 31, enantiomer 2, 1-((3-(Oxazol-5-yl)-1H-pyrazolo[4,3-b]pyridin-5-yl)oxy)-2,3-dihydro-1H-indene-5-carbonitrile] | < 100 | 100 to 1000
10 | N#Cc1ccc2c(c1)CCC[C@H]2Oc1cc2c(-c3cnco3)n[nH]c2cn1 (single isomer, unassigned) [Example 32, enantiomer 1, 5-((3-(Oxazol-5-yl)-1H-pyrazolo[3,4-c]pyridin-5-yl)oxy)-5,6,7,8-tetrahydronaphthalene-2-carbonitrile] | 100 to 1000 | 1000 to 10000
11 | N#Cc1ccc2c(c1)CCC[C@H]2Oc1cc2c(-c3cnco3)n[nH]c2cn1 (single isomer, unassigned) [Example 32, enantiomer 2, 5-((3-(Oxazol-5-yl)-1H-pyrazolo[3,4-c]pyridin-5-yl)oxy)-5,6,7,8-tetrahydronaphthalene-2-carbonitrile] | < 100 | < 100
12 | N#Cc1ccc2c(c1)CCC[C@@H]2Nc1cc2c(-c3cnco3)n[nH]c2cn1 (single isomer, unassigned) [Example 33, enantiomer 1, 5-((3-(Oxazol-5-yl)-1H-pyrazolo[3,4-c]pyridin-5-yl)amino)-5,6,7,8-tetrahydronaphthalene-2-carbonitrile] | < 100 | < 100
13 | N#Cc1ccc2c(c1)CCC[C@@H]2Nc1cc2c(-c3cnco3)n[nH]c2cn1 (single isomer, unassigned) [Example 33, enantiomer 2, 5-((3-(Oxazol-5-yl)-1H-pyrazolo[3,4-c]pyridin-5-yl)amino)-5,6,7,8-tetrahydronaphthalene-2-carbonitrile] | 100 to 1000 | 100 to 1000
14 | N#Cc1nc2c(o1)CCC[C@@H]2Nc1ccc2[nH]nc(-c3cnco3)c2c1 (single isomer, unassigned) [Example 35, enantiomer 1, 4-((3-(Oxazol-5-yl)-1H-indazol-5-yl)amino)-4,5,6,7-tetrahydrobenzo[d]oxazole-2-carbonitrile] | < 100 | < 100
15 | N#Cc1nc2c(o1)CCC[C@@H]2Nc1ccc2[nH]nc(-c3cnco3)c2c1 (single isomer, unassigned) [Example 35, enantiomer 2, 4-((3-(Oxazol-5-yl)-1H-indazol-5-yl)amino)-4,5,6,7-tetrahydrobenzo[d]oxazole-2-carbonitrile] | 100 to 1000 | 100 to 1000
16 | N#Cc1nc2c(o1)CCC2Nc1ccc2[nH]nc(-c3cnco3)c2c1 (single isomer, unassigned) [Example 36, enantiomer 1, 4-((3-(Oxazol-5-yl)-1H-indazol-5-yl)amino)-5,6-dihydro-4H-cyclopenta[d]oxazole-2-carbonitrile] | 100 to 1000 | 1000 to 10000
17 | N#Cc1nc2c(o1)CCC2Nc1ccc2[nH]nc(-c3cnco3)c2c1 (single isomer, unassigned) [Example 36, enantiomer 2, 4-((3-(Oxazol-5-yl)-1H-indazol-5-yl)amino)-5,6-dihydro-4H-cyclopenta[d]oxazole-2-carbonitrile] | < 100 | < 100
18 | N#Cc1cccc2c1[C@@H](Oc1ccc3[nH]nc(-c4cnco4)c3c1)CC2 (single isomer, unassigned) [Example 37, enantiomer 1, 3-((3-(Oxazol-5-yl)-1H-indazol-5-yl)oxy)-2,3-dihydro-1H-indene-4-carbonitrile] | < 100 | < 100
19 | N#Cc1ccc2c(c1)CCC[C@@H]2Oc1ccc2[nH]nc(-c3ccnc(N4CCOCC4)c3)c2c1 (single isomer, unassigned) [Example 39, enantiomer 1, 5-((3-(2-Morpholinopyridin-4-yl)-1H-indazol-5-yl)oxy)-5,6,7,8-tetrahydronaphthalene-2-carbonitrile] | < 100 | < 100
20 | COc1cc(-c2n[nH]c3ccc(N[C@H]4CCc5cc(C#N)ccc54)cc23)ccn1 (single isomer, unassigned) [Example 40, enantiomer 1, 1-((3-(2-Methoxypyridin-4-yl)-1H-indazol-5-yl)amino)-2,3-dihydro-1H-indene-5-carbonitrile] | < 100 | 100 to 1000
21 | N#Cc1cc2c(nn1)[C@@H](Oc1ccc3[nH]nc(-c4cnco4)c3c1)CC2 (single isomer, unassigned) [Example 41, enantiomer 1, 7-((3-(Oxazol-5-yl)-1H-indazol-5-yl)oxy)-6,7-dihydro-5H-cyclopenta[c]pyridazine-3-carbonitrile] | < 100 | < 100
